Laboratory results from patent publication US20250339399A1, “SUPRAMOLECULAR SELF-ASSEMBLY SYSTEM” (Beijing Creatron Institute of Pharmaceutical Research Co., …, priority 2022, published 2025).
Where two headings read alike, the source gives them in different places.

How the values were obtained:
[1] = Binary supramolecular self-assembly systems of polymer and target: guest concentration over incubation time (Comparative Example 2); assay type: physicochemical
Protocol: Experiments were conducted according to the steps in Comparative Example 1, and quantitative analysis was carried out using the analytical method for each target to investigate the regulation ability […] stacking.

[2] = cited from earlier work
[3] = Guest molecule concentration after incubation in initial medium without polymer (Comparative Example 1); assay type: physicochemical; conditions: 37° C., 0.05% SDS in pH 6.8 phosphate buffer
Protocol: pH 2.0 hydrochloric acid, pH 4.5 acetate, and pH 6.5, pH 6.8, or pH 7.4 phosphate buffer solutions were prepared. The selection of each initial medium followed the principle that the solubility in the initial medium of the selected targets (or active ingredients) should low enough, but should meet the detection sensitivity and accuracy requirements of the corresponding analytical methods. Each buffer as initial media was placed in a 50 ml test tube with a stopper, shaken in a constant temperature air shaker at 37° C.±0.5° C., with an amplitude of 200 rpm, and incubated for 1 hour. […] Samples were taken at 0.5 h, 3 h and 6 h after incubation, centrifuged at 37° C., 13000 rpm for 5 minutes, and the supernatant was diluted at least 10 times with the mobile phase under the target analyte analytical method, filtered, the initial filtrate was discarded, and the continued filtrate was used as the test solution for injection analysis. The corresponding HPLC method under each target object item in Table 8 was used to determine the content of each target substance. When the solubility of the target in the initial medium is below the quantitative limit of the analytical method, a small amount of surfactant, such as sodium dodecyl sulfate (SDS), Tween20, or Tween80, can be added appropriately.
The above targets were incubated at 37° C.±0.5° C. for different time in an initial medium without any polymer. Each solid target formed by molecular stacking was removed by centrifugation, and the supernatant was analyzed using the HPLC method under each target item (see Table 8). The theoretical addition concentration of each target when its supramolecular self-assembly system was built was determined by its maximum dose in clinical use.

[4] = binary system with 0.5% polymer 101, incubation 0.5 h
[5] = binary system with 0.5% polymer 101, incubation 3 h
[6] = binary system with 0.5% polymer 101, incubation 6 h
[7] = binary system with 0.5% polymer 102, incubation 0.5 h
[8] = binary system with 0.5% polymer 102, incubation 3 h
[9] = binary system with 0.5% polymer 102, incubation 6 h
[10] = binary system with 0.5% polymer 103, incubation 0.5 h
[11] = binary system with 0.5% polymer 103, incubation 3 h
[12] = binary system with 0.5% polymer 103, incubation 6 h
[13] = binary system with 0.5% polymer 106, incubation 0.5 h
[14] = binary system with 0.5% polymer 106, incubation 3 h
[15] = binary system with 0.5% polymer 106, incubation 6 h
[16] = binary system with 0.5% polymer 107, incubation 0.5 h
[17] = binary system with 0.5% polymer 107, incubation 3 h
[18] = binary system with 0.5% polymer 107, incubation 6 h
[19] = Cannabidiol derivatives, Table 30 (chemical structures)
[20] = prost derivatives, Table 31 (relevant information)

Compound | Concentration of the target in the solution measured after different incubation time [1, 4] | Concentration of the target in the solution measured after different incubation time [1, 5] | Concentration of the target in the solution measured after different incubation time [1, 6] | Concentration of the target in the solution measured after different incubation time [1, 7] | Concentration of the target in the solution measured after different incubation time [1, 8] | Concentration of the target in the solution measured after different incubation time [1, 9] | Concentration of the target in the solution measured after different incubation time [1, 10] | Concentration of the target in the solution measured after different incubation time [1, 11] | Concentration of the target in the solution measured after different incubation time [1, 12] | Concentration of the target in the solution measured after different incubation time [1, 13] | Concentration of the target in the solution measured after different incubation time [1, 14] | Concentration of the target in the solution measured after different incubation time [1, 15] | Concentration of the target in the solution measured after different incubation time [1, 16] | Concentration of the target in the solution measured after different incubation time [1, 17] | Concentration of the target in the solution measured after different incubation time [1, 18] | LogD7.4 or Log P [2] | Log P [2, 19] | further results
CCC(C)n1ncn(-c2ccc(N3CCN(c4ccc(OCC5COC(Cn6cncn6)(c6ccc(Cl)cc6Cl)O5)cc4)CC3)cc2)c1=O (stereo not drawn) [Itraconazole, itraconazole] | 47.9 µg/mL | 4.8 µg/mL | 3.0 µg/mL | 69.7 µg/mL | 34.5 µg/mL | 24.7 µg/mL | 14.1 µg/mL | 8.6 µg/mL | 1.9 µg/mL | 43.3 µg/mL | 8.3 µg/mL | 6.4 µg/mL | 13.5 µg/mL | 1.7 µg/mL | 1.2 µg/mL | 7.31 | – | Concentration of the target in the solution measured after different incubation time ([1]; binary system with 0.5% polymer 104, incubation 0.5 h): 31.5 µg/mL; Concentration of the target in the solution measured after different incubation time ([1]; binary system with 0.5% polymer 104, incubation 3 h): 7.1 µg/mL; Concentration of the target in the solution measured after different incubation time ([1]; binary system with 0.5% polymer 104, incubation 6 h): 3.1 µg/mL; Concentration of guest molecule measured after different incubated time ([3]; 0.5 h): 10.7 µg/mL; Concentration of guest molecule measured after different incubated time ([3]; 3 h): 2.9 µg/mL; Concentration of guest molecule measured after different incubated time ([3]; 6 h): 2.7 µg/mL
COC(=O)[C@H](c1ccccc1Cl)N1CCc2sccc2C1 [Clopidogrel, clopidogrel] | 415.1 µg/mL | 421.5 µg/mL | 361.7 µg/mL | 29.1 µg/mL | 28.5 µg/mL | 26.1 µg/mL | 69.1 µg/mL | 69.6 µg/mL | 64.5 µg/mL | 37.0 µg/mL | 39.3 µg/mL | 39.5 µg/mL | 57.0 µg/mL | 37.8 µg/mL | 36.5 µg/mL | 4.11 | – | Concentration of the target in the solution measured after different incubation time ([1]; binary system with 0.5% polymer 110, incubation 0.5 h): 64.7 µg/mL; Concentration of the target in the solution measured after different incubation time ([1]; binary system with 0.5% polymer 110, incubation 3 h): 69.3 µg/mL; Concentration of the target in the solution measured after different incubation time ([1]; binary system with 0.5% polymer 110, incubation 6 h): 64.4 µg/mL
O=C1[C@@H]2[C@H]3CC[C@H](C3)[C@@H]2C(=O)N1C[C@@H]1CCCC[C@H]1CN1CCN(c2nsc3ccccc23)CC1 [Lurasidone, lurasidone] | 13.2 µg/mL | 13.5 µg/mL | 9.4 µg/mL | 15.3 µg/mL | 12.7 µg/mL | 13.4 µg/mL | 7.0 µg/mL | 5.2 µg/mL | 4.0 µg/mL | 4.1 µg/mL | 3.1 µg/mL | 1.8 µg/mL | 3.2 µg/mL | 2.4 µg/mL | 1.7 µg/mL | 3.43 | – | –
C=C(C)[C@@H]1CCC(C)=C[C@H]1c1ccc(CCCCC)cc1O [compound 48, ((1′R,2′R)-5′-methyl-4-pentyl-2′-(prop-1-en-2-yl)-1′,2′,3′,4′-tetrahydro-[1,1′-biphenyl]-2-ol)] | – | – | – | – | – | – | – | – | – | – | – | – | – | – | – | – | Log P = 6.63 H-D:1, H-R = 1 | –
CCCCCc1cc(O)c([C@@H]2C=C(C)CC[C@H]2C(C)C)c(O)c1 [compound 20, ((1′S,2′S)-2′-isopropyl-5′-methyl-4-pentyl-1′,2′,3′,4′-tetrahydro-[1,1′-biphenyl]-2,6-diol)] | – | – | – | – | – | – | – | – | – | – | – | – | – | – | – | – | Log P = 6.67 H-D:2,H-R = 2 | –
CC(C)OC(=O)CCC/C=C\C[C@@H]1[C@@H](/C=C/[C@@H](O)COc2cccc(C(F)(F)F)c2)[C@H](O)C[C@@H]1O [Travoprost, travoprost] | – | – | – | – | – | – | – | – | – | – | – | – | – | – | – | – | – | Log P [2, 20]: Log P:3.84 D-H: 3 R-H: 5
CCCCC[C@](C)(O)/C=C/[C@@H]1[C@@H](C/C=C\CCCC(=O)O)[C@@H](O)C[C@H]1O [Carboprost, carboprost] | – | – | – | – | – | – | – | – | – | – | – | – | – | – | – | – | – | Log P [2, 20]: Log P:2.89 D-H: 4 R-H: 5
C=C(C)[C@@H]1CCC(C)=C[C@H]1c1c(OC(=O)CO[Si](C)(C)C(C)(C)C)cc(CCCCC)cc1OC(=O)CO[Si](C)(C)C(C)(C)C [compound 54] | – | – | – | – | – | – | – | – | – | – | – | – | – | – | – | – | Log P = 9.55 H-D:0,H-R = 4 | –
C=C(C)[C@@H]1CCC(C)=C[C@H]1c1c(C)cc(O)cc1O [compound 62, (5-methyl-4-[(1R,6R)-3-methyl-6-prop-1-en-2-ylcyclohex-2-en-1-yl]benzene-1,3-diol)] | – | – | – | – | – | – | – | – | – | – | – | – | – | – | – | – | Log P = 4.55 H-D:2,H-R = 2 | –
